Assay results as given in patent US7419972B2, “2-substituted estra-1,3,5(10)-trien-17-ones as inhibitors of 17β-hydroxy steroid dehydrogenase type 1” (Schering AG, priority 2004, dated 2008).
pIC50: −log10 of the molar value. Where two headings read alike, the source gives them in different places.

Target: T1, human 17β-hydroxy steroid dehydrogenase type 1 (Homo sapiens, UniProt P14061)
T1 construct: made in house; host or cells: E. coli (suspension of bacterial pellets, enzyme not purified)
T1 sequence (P14061 1-328): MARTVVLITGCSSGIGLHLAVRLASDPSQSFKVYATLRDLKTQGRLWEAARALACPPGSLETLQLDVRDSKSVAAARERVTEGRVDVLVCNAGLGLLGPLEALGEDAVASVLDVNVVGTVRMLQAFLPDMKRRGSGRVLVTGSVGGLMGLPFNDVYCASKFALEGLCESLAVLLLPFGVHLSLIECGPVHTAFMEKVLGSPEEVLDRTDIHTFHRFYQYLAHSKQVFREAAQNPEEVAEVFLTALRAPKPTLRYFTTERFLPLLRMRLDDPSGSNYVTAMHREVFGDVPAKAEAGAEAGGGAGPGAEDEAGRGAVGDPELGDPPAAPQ
Experiment: Inhibition of the activity of human 17β-hydroxy steroid dehydrogenase type 1 (3H-labeled substrate conversion, HPLC)
Assay type: biochemical
Excerpt: The test method is well described in the literature [Adamski, J., Sierralta, W. D., Jungblut, P. W., Acta Endocrinol (Copenh.) 121(2) (1989), 161-7] and is depicted below.
Human 17β-hydroxy steroid dehydrogenases (17β-HSDs) are over-expressed in E. coli bacteria as His-Tag proteins or as GST-fusion proteins. The suspensions of the bacterial pellets in isotonic common salt solution are used for the determination of enzyme activities of the 17β-HSDs or for the study of their influence by potential inhibitors (estrogen derivatives).
The measurements are made in double determination and, if necessary, at various concentrations of potential inhibitors (e.g., in determining the IC50 values). In addition to the target enzyme 17β-HSD1, other steroid-metabolizing enzymes are included in the test to study cross reactivities of estrogen derivatives.
The incubation of the samples is carried out at 37° C. in a water bath while being shaken, such that in the control (without substances to be tested), a conversion of about 30% is achieved.
The separation of radiolabeled substrate and product is then carried out, after extraction with 1 ml of reversed phase-(RP-18)-cartridges, by means of HPLC on an RP18 column with acetonitrile:water 1:1 (v/v) as a mobile phase. The radioactivity is detected with the aid of a flow-scintillation counter.
The evaluation of the substrate conversion with and without substances to be tested is performed by the integration of the substrate and product peaks. The conversion of the control normalized to 100% conversion.

[1] = enzyme over-expressed in E. coli, bacterial suspension, 37° C., read-out: 17βHSD1 IC50

CC[C@]12CC[C@@H]3c4cc(Cl)c(O)cc4CC[C@H]3[C@@H]1CCC2=O [Compound 1, 2-Chloro-3-hydroxy-18a-homoestra-1,3,5(10)-trien-17-one]
pIC50 [1]: 6.92

C[C@]12CC[C@@H]3c4cc(Cl)c(O)cc4CC[C@H]3[C@@H]1C[C@@H](F)C2=O [Compound 3, 2-Chloro-16α-fluoro-3-hydroxy-estra-1,3,5(10)-trien-17-one]
pIC50: 7.00

C[C@]12CC[C@@H]3c4cc(Cl)c(O)cc4CC[C@H]3[C@@H]1C[C@H](F)C2=O [Compound 4, 2-Chloro-16β-fluoro-3-hydroxy-estra-1,3,5(10)-trien-17-one]
pIC50: 7.46

C[C@]12CC[C@@H]3c4cc(Cl)c(O)cc4CC[C@H]3[C@@H]1CCC2=O [Compound 11, 2-Chloro-3-hydroxy-estra-1,3,5(10)-trien-17-one]
pIC50 [1]: 6.85

C[C@]12CC[C@@H]3c4cc(C#N)c(O)cc4CC[C@H]3[C@@H]1CCC2=O [Compound 12, 2-Cyano-3-hydroxy-estra-1,3,5(10)-trien-17-one]
pIC50 [1]: 6.83

C[C@]12CC[C@@H]3c4cc(C#Cc5ccccc5)c(O)cc4CC[C@H]3[C@@H]1CCC2=O [Compound 19, 3-Hydroxy-2-phenylethinyl-estra-1,3,5(10)-trien-17-one]
pIC50 [1]: 7.25

C[C@]12CC[C@@H]3c4cc(CCc5ccccc5)c(O)cc4CC[C@H]3[C@@H]1CCC2=O [Compound 21, 3-Hydroxy-2-(2′-phenyl-ethyl)estra-1,3,5(10)-trien-17-one]
pIC50: 7.33

CCc1cc2c(cc1O)CC[C@@H]1[C@@H]2CC[C@]2(C)C(=O)CC[C@@H]12 [Compound 23, 2-Ethyl-3-hydroxy-estra-1,3,5(10)-trien-17-one]
pIC50 [1]: 7.05
